For series [1], the system named is Swiss albino mice. In words: Acetic acid-induced writhing model. Particulars: 1 mg/kg, intraperitoneal. The series is classed as in vivo. Here is the method: Swiss albino mice (20-25 g, male) were administered with the peptide and at the appropriate post- dose time acetic acid (0.9% solution) was injected intraperitoneally (10 ml/kg). The mice were then placed in a transparent observer box and the total number of writhes per animal in the 15 min period after injection of acetic acid was recorded. A writhe is typically characterized by contractions of the abdominal musculature followed by extension of the hind limbs. Statistical comparison was done by either Student's t-test or one-way ANOVA.
At 1 h post administration time, acetic acid (0.9% solution) was injected intraperitoneally and the total number of writhes per animal was recorded, as described above. Upon completion of the experiment the animals were sacrificed and skull exposed. The accuracy of the injection was confirmed via injection of methyl-blue dye into the injection aperture left by the original injection. Only results from mice showing coloration of the ventricles are accepted.
(Writhing tests count abdominal constrictions after an irritant is injected.)

Series [2] has as its system Swiss albino mice. In words: Hot plate model. It counts as in vivo. To be noted: intraperitoneal administration, 30 min post-dose, positive control.
The subject of series [3] is Swiss albino mice. The series is described as follows: Rotarod test. Particulars: 20 mg/kg, subcutaneous. The series is classed as in vivo. As for the experimental part: Swiss albino mice (∼20-30 g) were first trained on the rotarod, which accelerated from 0-20 rpm over 5 min, prior to the experiment. Only mice that were capable of staying on the rotarod for the entire 5 min period were used in this experiment. Mice were either administered with the peptide (1 or 10 mg/kg, sublingual), or morphine (20 mg/kg, subcutaneous). After drug administration, the animals are placed on the rotarod and the time taken for the mice to slip was recorded (up to 5 min), and subsequently at 1h, 2h and 3h post peptide, and at 30 min, 1h30 min and 2h30 min post morphine. Statistical comparison was done by either Student's t-test or one-way ANOVA.
In general terms: The rotarod test checks motor coordination on a turning rod.

In series [4] the test system is Swiss albino mice. The series is described as follows: GI motility (charcoal transit distance). The series is classed as in vivo. Particulars: 0.5 to 50 mg/kg intraperitoneal, 30 min post-drug. Here is the method: Swiss albino mice (30-35 g) were injected with saline, the peptide (5 mg/kg, 50 mg/kg intraperitoneal) or morphine (0.5 mg/kg, 5 mg/kg, 50 mg/kg intraperitoneal). The experimenters are blind to the identity of the solutions. All mice were administered 5 mg charcoal (0.1 ml of 50 mg/ml charcoal solution) via oral gavage immediately after drug administration. At 30 min post- drug / charcoal administration, the mice were sacrificed by cervical dislocation and the GI tract was exposed and the location of the charcoal identified. The distance the charcoal traveled in the intestine from the stomach was measured and expressed as % of total length of the GI tract.

For series [5], the system named is Swiss albino mice. The series is described as follows: Spontaneous locomotor activity. The series is classed as in vivo. Particulars: 50 mg/kg, intraperitoneal, between 60 min and 220 min post drug administration. As for the experimental part: Swiss albino mice (∼30 - 40 g) were first placed into their respective chambers with a 20 min pre-treatment recording. Only mice showing at least 50 counts / 5 min are used in the experiments. Mice were administered saline (control), peptide (5 or 50 mg/kg) or morphine (50 mg/kg). Experimenters were blind to the identity of the drug solutions. After drug administration, the animals were placed into their individual chambers and their spontaneous locomotor activity was recorded by video tracking and the data were recorded for a period of 4 h. Statistical comparison was done by 2-way ANOVA.

For series [6] the following is noted: cited from earlier work.
Series [7] has as its system rats. The series is described as follows: Open-field test (anxiety score). It counts as in vivo. Particulars: positive control. An excerpt:
The open field test is generally used to assess anxiety level of rodents due to their natural aversion of open space and thus their preference to stay near the side rather than venturing to the more open central part of the open field.
The open field was divided into 16 equal size squares (25 x 25 cm). The 4 squares at the centre are assigned a low anxiety score (0) while those at the 4 corners are assigned a high anxiety score (2). The remaining 8 squares are assigned a medium score (1). A rat entering each square will be given the score assigned to that square. The sum total obtained within the 5-min test period divided by the number of squares entered is the anxiety score for that rat. Diazepam was used as positive control. Statistical comparison was done by Student's t-test.

Series [8] relates to rats. In words: Elevated-plus maze test. It counts as in vivo. Particulars: compared to DMSO-controls. An excerpt: The Elevated-Plus Maze Test is generally used to assess anxiety level of rodents due to their natural aversion for height. Two opposite arms of the elevated-plus maze are enclosed by high walls (closed arms) while the other two are not (open arms). The test animals (rats) naturally prefer and spend more time in the closed arms.

The mark [9] stands for this setting: sublingual route (oxytocin in physiological saline solution).

“Also recorded” adds a separate entry of the source. Like-named read-outs stand apart in the source and are kept apart here. Marks after values point to notes of the source that are not given here.

For orientation: ED50 means the dose at which the effect has come halfway, by size or by number of responders. `CN1CC[C@]23c4c5ccc(O)c4O[C@H]2[C@@H](O)C=C[C@H]3[C@H]1C5` [Morphine, morphine]: in the series with Swiss albino mice [1], the “Time to first writhe” value is on record as 190.75* % saline control, the “Total writhes in 15 min” value is 38.18* % saline control, the “Writhes in first 5 min” value is 12.5* % saline control and the “Writhes in subsequent 10 min” value was 48.56* % saline control. Further, the ED50 with Swiss albino mice [2] (Mus musculus, ip, 0.5 h) is 0.82 mg/kg. In the series with Swiss albino mice [2], the Emax is recorded as 250 % of pre-dose latency. Besides, the “rotarod performance (time to slip)” value with Swiss albino mice [3] (30 min, 1h30 min and 2h30 min post dose) is reported as “No statistical significant effects”. Further, in the series with Swiss albino mice [3] (30 min post drug administration, p=0.056), the “rotarod performance (time to slip)” value is reported as “near significant decrease in performance”. Further, in the series with Swiss albino mice [4], the GI transit distance result is reported as “dose-dependently decreased GI motility; also recorded: dose dependent inhibitory effect”. The locomotive activities result in the series with Swiss albino mice [5] is on record as “significant increase in locomotive activities”.
Broadly, the bioavailability is dose-corrected exposure relative to a reference, in per cent. For desmopressin, in series [6] (setting [9]), the bioavailability result is recorded as “about 0.25%”.
For oxytocin, the bioavailability in series [6] (formulation with 0.75% w/w sodium taurocholate (tablet form)) was 27%; in series [6] (setting [9]), 0.007-0.07%; in series [6] (sublingual route (oxytocin in physiological saline solution), listed as Oxytocin), 0.007 - 0.07%.
Take `CN1C(=O)CN=C(c2ccccc2)c2cc(Cl)ccc21` [diazepam]: in the series on rats [7], the anxiety score entry is “decreased the anxiety score significantly”. In addition, the “times spent in open and closed arms” value with rats [8] was “reversed the times spent in open and closed arms”.

The values above are taken from patent publication EP2476410A1, “An analgesic peptide-containing composition for transbuccal administration” (priority 2011, dated 2012).
